According to PMC4738305, “Metabolism and Disposition of Aditoprim in Swine, Broilers, Carp and Rats” (Scientific Reports, 2016):

Key:
[1] = Concentration and elimination of ADP and its metabolites in liver, kidney, muscle, fat/skin after oral ^3H-ADP for 7 d; assay type: in vivo, swine; conditions: swine, oral, 5 mg/kg b.w.
Description: (§1) A total of 36 animals from each species (swine n = 24) were randomly assigned to six equal treatment groups and administered a single daily dose of ^3 H-ADP at 5 mg/kg b. w. (0.1 Ci/g) through oral gavage for 7 consecutive days. All the animals were housed on the basis of their group in the cages or aquaria throughout the whole study period. A group of animals was slaughtered through exsanguination under diethyl ether inhalation of anesthesia in the period of 6 h, 1, 3, 7, 14, and 21 d after the administration. The blood samples were immediately collected into the heparinized tubes and was centrifuged at 1920 × g at 4 °C for 10 min to obtain the plasma. The tissues from the heart, liver, spleen, lung, kidney, craw (broilers), stomach, intestine, fat, skin, muscle, thymus, pancreas, bile, bladder, hair (scale for carp), genital gland, adrenal glands, swim bladder (carp), brain, lymph, and bursa (broilers) were carefully excised and collected. The tissues were thoroughly rinsed with the deionized water to remove the residuary blood, blotted to dryness, and finally to perform the homogenization. In order to avoid cross-contamination the dissecting instruments were washed during the tissue procurements. The blank tissues were collected in order to provide control matrices. The total radioactivity levels in each sample were determined through LSC. The samples extracted from the plasma, bile, and tissues of the liver, kidney, muscle, and fat/skin were analyzed through LC/MS-IT-TOF and v. ARC radiometric detection for metabolite profiling. The blank samples were used as control to determine the background radioactivity or the endogenous nondrug-related ions observed within respective matrices or their extracts.
(§2) The feces and tissues (2 g) were diluted with a mixture of methanol and chloroform (1:3, v:v; 2 mL/g homogenate). This procedure was carried out in a fume hood for the safety aspects. The pH value was adjusted to 9.0 with NH4OH. The mixture was vortexed and sonicated for 5 min and 10 min, respectively, and finally the samples were centrifuged at 7690 × g for 10 min. The supernatant was aspirated and then transferred into a new centrifuge tube. The obtained pellet was again subjected to the same process of vortex, ultrasonication, extraction, and centrifugation. The combined supernatant was concentrated under a stream of nitrogen in a water bath at 40 °C. The residue was reconstituted with 0.3 mL of methanol–water (1:9, v:v) before the injection into the LC-v. ARC/MS-IT-TOF system for analysis.
(§3) ADP and its metabolites in the prepared samples were determined with a v. ARC radiometric detector and a hybrid IT/TOF mass spectrometer connected to the HPLC system (Shimadzu Corp., Kyoto, Japan). The LC system was equipped with a solvent delivery pump (LC-20AD), an auto-sampler (SIL-20AC), a degasser (DGU-20 A 3), a photodiode array detector (SPD-M20A), a communication base module (CBM-20 A), and a column oven (CTO-20AC). The chromatographic separation was achieved by using an Agilent extend-C18 column (2.1 mm × 150 mm, 5 μm) with a gradient mobile phase of A (0.01% ammonia and 5 mM ammonium acetate in water) and B (methanol) at a flow rate of 0.2 mL/min. The column temperature was maintained at 35 °C. Various HPLC methods were performed because of the large number of different metabolites to be analyzed. For the porcine sample, method 1 started at 5% B and increased to 20% B over 35 min, then to 55% B by 60 min, followed by re-equilibration for another 10 min. For the remaining samples, method 2 started at 10% B and increased to 60% B over 30 min, subsequently was maintained at 60% B for an additional 10 min, and then changed to 90% B over 2 min and maintained for 2 min. Afterwards, a re-equilibration step (decreased to 10% B over 1 min and maintained at 10% B for additional 9 min) was followed. For each matrix, more than 98% of the radioactivity injected into the column was eluted during the running time of the gradient program. […]

[2] = Metabolite profiling of ADP in excreta, plasma and bile (LC-v.ARC/MS-IT-TOF); assay type: in vivo, broilers
Description: (§4) Animals (4 swine, 6 broilers, 6 carp, and 3 male and 3 female rats) were housed individually in clean, suspended wire-mesh metabolism cages, designed to separate the urine from the feces (carp were raised in individual aquaria). Each animal was weighed and assigned with a permanent identification number. A single dose of ^3 H-ADP (5 mg/kg b. w., 0.1 Ci/g) was administered via the oral gavage. Excreta were collected on ice at the pre-administration, in the period of 6, 12, and 24 h on day 1 d, and afterwards, intermittently in the period of 24 h up to 14 d. The piscine excreta were collected by changing and collecting raised water. The total volume or weight of each sample was measured and homogenized. The total radioactivity levels were determined through LSC for the recovery calculations. After the preparation, the samples were analyzed through LC/MS-IT-TOF with v. ARC radiometric detection (XenoBioticLaboratories, Inc.) for metabolite profiling. The pretreatment samples were used as controls to determine the background radioactivity or the endogenous nondrug-related ions observed within respective matrices or their extracts.
as §1
(§5) For metabolite profiling, the urine and feces samples from each animals were pooled proportionally to the excreted amount in each sampling period from 0 to 6 h, 6 h to 1 d, 1 to 3 d, 3 to 7 d, and 7 to 14 d post-dose, respectively. All samples were fully homogenized before the process. The pre-dose and blank samples served as the controls for determining the background radioactivity or the endogenous, nondrug-related ions observed within respective matrices or their extracts.
(§6) The urine samples (plasma, bile and raised water for carp) was subjected to solid-phase extraction with an Oasis MCX cartridge (3 mL, […]; Waters, Milford, MA, USA) for metabolite purification and enrichment. The pH value was adjusted to 2.8–3.2 by adding 1 M hydrochloric acid (HCl), and 2 mL of the sample was transferred into MCX cartridge, which was preconditioned with 3 mL of methanol and 3 mL of 0.1 mol/L HCl solution. The cartridge was washed with 3 mL of 0.1 mol/L HCl solution and was eluted with 5 mL of NH4OH/methanol (4:96, v:v). The effluent was concentrated to dryness under a stream of nitrogen at 40 °C. […]

[3] = Concentration and elimination of ADP and its metabolites in liver, kidney, muscle, fat/skin after oral ^3H-ADP for 7 d; assay type: in vivo, broilers; conditions: broiler chicken, kidney, oral, 5 mg/kg b.w.
Description: as §1, §2, §3

[4] = Metabolite profiling of ADP in excreta, plasma and bile (LC-v.ARC/MS-IT-TOF); assay type: in vivo, swine; conditions: for percentage of the individual metabolite compared with the total concentration of ADP-related: within 6 h after dosing; for Average percentage of ADP and its metabolites in total dose: Swine, Urine, single oral 5 mg/kg b.w. ^3H-ADP
Description: as §4, §1, §5, §6

[5] = as above; assay type: in vivo, rats
Description: as §4, §1, §5, §6

[6] = Concentration and elimination of ADP and its metabolites in liver, kidney, muscle, fat/skin after oral ^3H-ADP for 7 d; assay type: in vivo, rats; conditions: rat, liver, oral, 5 mg/kg b. w.
Description: as §1, §2, §3

[7] = rats, within 3 d; cited from earlier work

| SMILES | concentration at 0.25 d ([1]; liver) [ng/g] | percentage of the individual metabolite compared with the total concentration of ADP-related ([2]; Broilers Extra (excreta), within 6 h after dosing) [%] | Average percentage of ADP and its metabolites in total dose ([2]; Broilers, Excreta, single oral 5 mg/kg b.w. ^3H-ADP) [%] | concentration at 0.25 d [3] [ng/g] | percentage of the individual metabolite compared with the total concentration of ADP-related ([4]; Swine Urine) [%] | Average percentage of ADP and its metabolites in total dose [4] [%] | concentration at 0.25 d ([1]; kidney) [ng/g] | concentration at 1 d ([1]; kidney) [ng/g] | concentration at 1 d ([1]; liver) [ng/g] | percentage of the individual metabolite compared with the total concentration of ADP-related ([4]; Swine Plasma) [%] | Average percentage of ADP and its metabolites in total dose ([5]; Rat, Urine, single oral 5 mg/kg b.w. ^3H-ADP) [%] | percentage of the individual metabolite compared with the total concentration of ADP-related ([5]; Rats Urine, within 6 h after dosing) [%] | concentration at 0.25 d [6] [ng/g] | oral dose recovered [7] |
| --- | --- | --- | --- | --- | --- | --- | --- | --- | --- | --- | --- | --- | --- | --- |
| COc1cc(Cc2cnc(N)nc2N)cc(O)c1N(C)C [A3, 3-OH-ADP] | 940 ± 170 | 3.5 | 6.4 | 110 ± 90 | 9.7 | 5.4 |  |  |  |  |  |  |  |  |
| CNc1c(O)cc(C(O)c2cnc(N)nc2N)cc1OC (stereo not shown) [A4, 3-OH-4-methylamino-ADP] | 320 ± 30 |  |  |  | 4.8 | 3.1 | 520 ± 80 | 480 ± 260 | 270 ± 40 | 4.6 |  |  |  |  |
| CNc1c(OC)cc(C(O)c2cnc(N)nc2N)cc1OC (stereo not drawn) [A5, 4-methylamino-α-OH-ADP] | 430 ± 40 |  |  |  | 1.2 | 1.9 | 710 ± 110 | 270 ± 150 | 260 ± 40 | 1.6 |  |  |  |  |
| COc1cc(C(O)c2cnc(N)nc2N)cc(O)c1N(C)C (stereo not drawn) [A6, 3-OH-α-OH-ADP] | 360 ± 40 |  |  |  | 6.4 | 3.7 | 690 ± 100 | 60 ± 30 |  | 3.8 | 0.5 | 3.1 | 10 ± 10 |  |
| CNc1c(O)cc(Cc2cnc(N)nc2N)cc1OC [A7, 4-methylamino-3-OH-ADP] | 790 ± 170 |  |  |  | 1.9 | 1.8 |  |  | 450 ± 90 |  |  |  |  |  |
| COc1cc(C(O)c2cnc(N)nc2N)cc(OC)c1N(C)C (stereo not drawn) [A8, α-OH-ADP] | 20 |  |  |  | 1.4 | 1.0 |  |  |  |  |  |  |  |  |
| COc1cc(Cc2cnc(N)nc2N)cc(OC)c1OC [TMP, trimethoprim] |  |  |  |  |  |  |  |  |  |  |  |  |  | more than 95 % of the oral dose |
